# According to PMC9049331, “X-ray crystal structure of the Escherichia coli RadD DNA repair protein bound to ADP reveals a novel zinc ribbon domain” (PLoS ONE, 2022):
# Target: T1, RadD (Escherichia coli, UniProt P33919)
# T1 construct: open reading frame of E. coli radD from plasmid pEAW724, no tag mentioned, expressed in E. coli STL2669 (DE3)
# T1 sequence (P33919 1-586): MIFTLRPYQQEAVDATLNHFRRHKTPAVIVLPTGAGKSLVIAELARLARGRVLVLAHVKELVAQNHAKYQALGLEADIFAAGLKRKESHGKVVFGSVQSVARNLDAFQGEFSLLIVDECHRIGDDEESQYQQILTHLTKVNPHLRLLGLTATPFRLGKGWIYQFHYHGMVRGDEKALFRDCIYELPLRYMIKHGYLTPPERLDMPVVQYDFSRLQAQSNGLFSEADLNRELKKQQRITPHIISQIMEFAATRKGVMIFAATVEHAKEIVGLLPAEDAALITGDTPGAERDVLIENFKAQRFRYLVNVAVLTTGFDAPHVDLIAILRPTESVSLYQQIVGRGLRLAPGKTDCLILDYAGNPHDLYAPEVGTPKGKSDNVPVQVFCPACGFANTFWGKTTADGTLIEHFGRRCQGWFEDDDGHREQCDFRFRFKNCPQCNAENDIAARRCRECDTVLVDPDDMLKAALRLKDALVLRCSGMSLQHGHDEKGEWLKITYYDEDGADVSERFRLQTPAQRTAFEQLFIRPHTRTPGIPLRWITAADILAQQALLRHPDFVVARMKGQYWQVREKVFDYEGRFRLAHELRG
# Experiment: X-ray crystal structure, […] A
# Format: binding
# Settings: crystallised with 1 mM ATPgammaS, ADP presumed from slow hydrolysis; Mg2+; pH 7.7; 4 C; ATPase site
compound,measurement,value
Nc1ncnc2c1ncn2[C@@H]1O[C@H](COP(=O)(O)OP(=O)(O)O)[C@@H](O)[C@H]1O [ADP],"X-ray crystal structure, 2.03 A",ADP was modelled in the RadD active site
